The NIST ThermoML archive (doi:10.1016/j.jct.2014.02.003)
± gives the expanded uncertainty stated by the source. Values belong to the compound of their own block, whether it stands above or below them.

Assay: molar enthalpy of vaporization or sublimation
Details: Crystal, Knudsen effusion method coupled with mass spectrometer, from logarithm of peak intensity

molar enthalpy (471.15 K): 47.8 ± 0.43 kcal/mol
SMILES: N[C@@H](Cc1ccc(O)cc1)C(=O)O [3-(p-hydroxyphenyl)-L-alanine]

molar enthalpy (418.15 K): 37.8 ± 0.478 kcal/mol
SMILES: N[C@@H](Cc1ccccc1)C(=O)O [L-phenylalanine]

molar enthalpy (450.15 K): 44.1 ± 0.55 kcal/mol
SMILES: N[C@@H](Cc1c[nH]c2ccccc12)C(=O)O [L-tryptophan]

molar enthalpy (308.21 K): 21.7 ± 0.454 kcal/mol
SMILES: O=C(O)c1ccccc1 [benzoic acid]
